The results in this text go back to patent publication US6093717A, “Imidazopyridine thrombin inhibitors” (Merck & Co., Inc., priority 1999, dated 2000).

Usually Ki stands for a dissociation constant, usually derived from enzyme kinetics or from competition with a known ligand.

Counter-ions that a name gives are not always drawn. Some results are limits rather than exact numbers.

For this assay, the target named is human α-thrombin (Homo sapiens, UniProt P00734). The assay can be described thus: In vitro assay for determining proteinase inhibition: human α-thrombin. It is filed as biochemical. The following applies: 25° C., 0.05 M TRIS buffer pH 7.4, 0.15 M NaCl, 0.1% PEG, class symbols, read-out: Inhibitory activity (Ki). The method, then:
In Vitro Assay For Determining Proteinase Inhibition
The assays were carried out at 25° C. in 0.05 M TRIS buffer pH 7.4, 0.15 M NaCl, 0.1% PEG. Trypsin assays also contained 1 mM CaCl2.
Concentrations of stock solutions of Z-GPR-afc were determined from measurements of absorbance at 380 nm of the 7-amino-4-trifluoromethyl coumarin produced upon complete hydrolysis of an aliquot of the stock solution by thrombin.
Times required to achieve equilibration between enzyme and inhibitor were determined in control experiments. Initial velocities of product formation in the absence (Vo) or presence of inhibitor (Vi) were measured. Assuming competitive inhibition, and that unity is negligible compared Km /[S], […] (where [S], [I], and e respectively represent the total concentrations, of substrate, inhibitor and enzyme), the equilibrium constant (Ki) for dissociation of the inhibitor from the enzyme can be obtained from the dependence of Vo /Vi on [I] shown in equation 1.
For the compound `Cc1cc2c(c(=O)n1CC(=O)NCc1ccc3nccn3c1C)NC(=O)[C@H](Cc1ccccc1)C2` [Example 9, [R]-7-(4-methyl-5-methylenecarboxamidomethyleneimidazo[1,2-a]pyridinyl)-3-benzyl-6-methyl-2-oxo-1,2,3,4-tetrahydro-1,7-naphthiridin-[7H]-8-one], the inhibition constant (Ki) is below 20 nM.

For the compound `Cc1cc(S(=O)(=O)CC2CCC2)c(N)c(=O)n1CC(=O)NCc1ccc2nccn2c1C` [Example 6, 3-Amino-4-cyclobutylmethylenesulfonyl-6-methyl-1-(4-methyl-5-methylenecarboxamidomethyleneimidazo[1,2-a]pyridinyl)-pyridinone hydrochloride], the Ki was below 20 nM. With `Cc1cnc(NCCc2ccccc2)c(=O)n1CC(=O)NCc1ccn2ccnc2c1` [Example 5, 3-(2-Phenethyleneamino)-6-methyl-1-(6-methylenecarboxamidomethylene-imidazo[1,2-a]pyridinyl)-pyrazinone], the inhibition constant Ki is above 20 nM. Consider `Cc1cc2nccn2cc1CNC(=O)Cn1c(C)cnc(NCCc2ccccc2)c1=O` [Example 4, dihydrochloride], for which the inhibition constant (Ki) was above 20 nM. In the case of `Cc1ccc(NS(=O)(=O)Cc2ccccc2)c(=O)n1CC(=O)NCc1ccc2nccn2c1C` [Example 8, hydrochloride] it was below 20 nM.

In the case of `CC[C@H](C)CC1Cc2cc(C)n(CC(=O)NCc3ccc4nccn4c3C)c(=O)c2NC1=O` (stereo partly drawn) [Example 10, 7-(4-methyl-5-methylenecarboxamidomethyleneimidazo[1,2-a]pyridinyl)-3-[RS]-(2-[S]-methylbutyl)-6-methyl-2-oxo-1,2,3,4-tetrahydro-1,7-naphthiridin-[7H]-8-one], the Ki is below 20 nM. In the case of `Cc1cnc(NCCc2ccccc2)c(=O)n1CC(=O)NCc1ccc2nccn2c1` [Example 1, dihydrochloride] it was above 20 nM; in that of `Cc1cc(CNC(=O)Cn2c(C)cnc(NCCc3ccccc3)c2=O)cn2ccnc12` [Example 3, dihydrochloride], above 20 nM.

Turning to `Cc1cnc(NCCc2ccccn2)c(=O)n1CC(=O)NCc1ccc2nccn2c1C` [Example 7, 3-[2-(2-Pyridyl)ethyleneamino]-6-methyl-1-(4-methyl-5-methylenecarboxamidomethyleneimidazo[1,2-a]pyridinyl)-pyrazinone], the Ki was below 20 nM.
